Data taken from patent US20020160413A1, “COMBINATORIAL LIBRARIES” (priority 1998, published 2002).

Columns and labels:
Format in all cases: binding
[1] = test system: double-stranded oligo(dA)-oligo(dT); assay: Affinity selection and amplification of salicylaldimine library on double-stranded DNA affinity column; conditions: for retention on the affinity column in the presence of zinc: 0.5 mM each of 8-13, with 26 MM ZnCl2, normalized to values in the absence of zinc, two-hour incubation
Source text: A serious potential problem with the selection and amplification of a single compound from an equilibrating mixture of complexes is that of identifying the desired high-affinity species. First, if the selection is not complete for a single compound, the separation and identification of a potentially large number of complexes presents a significant analytical challenge. Furthermore, since reequilibration of complexes can occur once the affinity resin is removed, it might be expected that binding information would be lost. […] Application of this technique to the eluent from an affinity column would permit deconvolution of the library to provide information about the identity of binding complexes.
With a series of monomers, verification of self-assembly in aqueous solutions, and a separation method in hand, the experimental tools were in place to conduct an affinity selection and amplification experiment. A standard solution of 0.5 mM 8-13 (total concentration 3 mM in “monomer”) was prepared in 10 mM Tris•HCl, 100 mM KCl, 1% DMSO, pH 7.5. To determine the effect of zinc on the observed selection, samples were prepared either with or without 26 MM ZnCl2. Samples were allowed to incubate for one hour to allow an equilibrium mixture of complexes to form, and the latter were then individually added to affinity columns prepared from 30 mg of commercial poly(dT)-cellulose resin (Pharmacia Biotech) preincubated with one A260 unit (approximately 7 nmol) of oligo (dA)12-18(Oligo (dA)12-18 as obtained from Pharmacia Biotech is a mixture of homopolymeric, single-stranded DNA of length 12 to 18) in 10 mM Tris•HCl, 100 mM KCl, pH 7.5 for formation of double-stranded DNA (giving an approximate, average complex:base pair ratio of 85:1). Following a two-hour incubation of the libraries on the resin, solutions were eluted, lyophilized, and derivatized as described above.

[2] = Control selection of salicylaldimine library on cellulose alone; conditions: conditions identical to double-stranded experiment
oligo (dA•dT) = assay: Affinity selection of amine/salicylaldehyde/Zn2+ library on DNA-cellulose resin, HPLC of derivatized amines in initial elution; conditions: 82 μM salicylaldehyde, 164 μM each amine
Procedure: For each sample, 15 mg oligo(dT) cellulose was weighed into a 2 ml Bio-Rad BIOSPIN™ polypropylene chromatography column equipped with a glass frit. The resin was then taken up in 750 μl HEPES buffer (10 mM HEPES, 100 mM KC1, pH 6.8). 0.5 A(260) units of oligo(dA) were then added in 50 μl H2O and allowed to incubate on the resin for one hour at ambient temperature prior to the addition of library samples. During this pre-incubation period, as well as throughout the remainder of the experiments, gentle agitation was provided by rotating the samples on a Barnstead-Thermolyne LAB QUAKE™ rotary shaker. In a similar manner, 15 mg of unfunctionalized cellulose for each control experiment was allowed to soak in 800 μl HEPES buffer at ambient temperature for one hour prior to the addition of library samples.
As one skilled in the are will note, the complexes shown above represent only a subset of the complexes that would be present in this equilibrium. Samples were prepared in triplicate from stock solutions as indicated in Table 1 to provide a total volume of 450 μl. An identical set of samples was prepared for control experiments. In each case, libraries were allowed to incubate at ambient temperature for one hour prior to addition to the DNA-cellulose or control cellulose resin. Additional sets of library samples were prepared according to lines C and D of Table 1 for control experiments conducted in the absence of DNA-cellulose or unfunctionalized cellulose resin.
Following the pre-incubation period, each sample was added to either a DNA-cellulose or unfunctionalized cellulose column as appropriate. These samples were then allowed to incubate on the resin with gentle agitation at ambient temperature for six hours. Solutions were then eluted from the resin, frozen, and lyophilized prior to derivatization and analysis as described below. […]
In order to separate and identify as many constituents of each sample as possible, a minimum of two HPLC elutions were performed for each sample. […] Elutions were monitored at 230 nm. […]

[3] = test system: single-stranded oligo(dT)-cellulose; assay: Control selection of salicylaldimine library on single-stranded oligo(dT)-cellulose; conditions: conditions identical to double-stranded experiment
[4] = 41 μM Zn2+, normalized to zinc-free samples

In the case of Oc1ccccc1/C=N/CC1CCCO1 (stereo not drawn) [monomer 11], the “retention on the affinity column in the presence of zinc” value [1] is reported as “most strongly retained” and the “retention on cellulose, presence versus absence of zinc” value [2] is reported as “more strongly retained”.
With CN1CCCC1CCN (stereo not drawn) [Amine 4, N-methyl 2-aminoethyl pyrrolidine] the “amount retained on the column at higher Zn2+ versus 41 μM Zn2+” value (oligo (dA•dT); 82 μM Zn2+) was “significant reduction in the amount of 4 retained” and the “reduction in the amount of derivatized amine in initial elution (in words)” value (oligo (dA•dT); [4]) was “significant reduction”.
With Oc1ccccc1/C=N/CCc1ccccn1 [monomer 12] the “derivatized monomer eluted in the presence of zinc versus absence of zinc” value ([1]; 0.5 mM each of 8-13, with or without 26 MM ZnCl2) was “twice as much”.
In the case of CN1CCCC1CC/N=C/c1ccccc1O (stereo not drawn) [monomer 9], the “retention on the affinity column in the presence of zinc” value [1] is reported as “most strongly retained”, the “retention on oligo(dT)-cellulose, presence versus absence of zinc” value [3] is reported as “to the same extent” and the “retention on cellulose, presence versus absence of zinc” value [2] is reported as “to the same extent”.
In the case of NCCCO [Amine 6, 3-hydroxypropylamine], the “reduction in the amount of derivatized amine in initial elution” value (oligo (dA•dT); [4]) is reported as > 50%.
